# Measured values reported in publication PMC7531004, “Discovery of gramicidin A analogues with altered activities by multidimensional screening of a one-bead-one-compound library” (Nature Communications, 2020).
# Where a SMILES comes first, the peptide text is derived from it. [ ]: non-standard residue; d: D form. The star is where a group is joined. NHCH2CH2OH = OCCN*; For = O=C*
# What was measured:
# [1] = cell viability/%
# Procedure, shortened: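 Peptide stocks diluted 250× in growth medium; P388 cells 1 × 10^4 cells/mL final; 37 °C, 5% CO2, 92 h. WST-1 + 1-methoxy PMS, 4 h, A415. Output: % viability.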
# [2] = H+/Na+ transport assay of bead-derived peptides (one-point); type: biochemical; design: key: relative activity; mean of two control wells = 1.00; conditions: bead-derived peptide solution, EYPC/EYPG LUVs;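 further: relative to parent gramicidin A activity set to 1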
# Procedure, shortened: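 Values are normalized fluorescence, with Triton X-100 defining 100% and untreated LUVs 0%, and the two control wells averaging 1.00. Vesicles carried 1.0 mM pyranine and included egg yolk phosphatidylglycerol. Peptides were incubated with them 30 min at room temperature.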
# [3] = system: Streptococcus pyogenes SSI-9; experiment: Antibacterial activity assay of bead-derived peptides (three concentrations); type: cell-based; design: key: +++: inhibition by the 640-fold diluted peptide solution; ++: inhibition by the 160-fold diluted solution; +: inhibition by the 40-fold diluted solution; -: no inhibition; conditions: S. pyogenes, bead-derived peptide solution, three concentrations
# Procedure, shortened: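 Growth inhibition scored visually as precipitated bacteria after 37 °C, 18 h incubation. Streptococcus pyogenes SSI-9 inoculum of 2 × 10^5 CFU in Ca2+/Mg2+-adjusted Mueller Hinton broth plus 5% laked horse blood; peptides tested at three levels: stock, 4-fold and 16-fold DMSO dilutions.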
smiles,measurement,setting,value
CC(C)C[C@@H](NC(=O)[C@H](C)NC(=O)[C@H](NC(=O)[C@H](C)NC(=O)CNC(=O)[C@@H](NC=O)C(C)C)C(C)C)C(=O)N[C@H](C(=O)N[C@H](CC(C)C)C(=O)N[C@@H](Cc1c[nH]c2ccccc12)C(=O)N[C@H](CC(C)C)C(=O)N[C@@H](Cc1c[nH]c2ccccc12)C(=O)N[C@H](CC(C)C)C(=O)N[C@@H](Cc1c[nH]c2ccccc12)C(=O)N[C@@H](C(=O)N[C@@H](Cc1c[nH]c2ccccc12)C(=O)NCCO)[C@H](C)O)C(C)C [compound 129] (For-VGA[dV]A[dL]V[dL]W[dL]W[dL]W[dT]W-NHCH2CH2OH),viability,[1],100%
same,H+/Na+ transport activity normalized against the value of 1 (1.00),[2],1.05
same,antibacterial activity,[3],+
CC(C)C[C@@H](NC(=O)[C@H](C)NC(=O)[C@H](NC(=O)[C@H](C)NC(=O)CNC(=O)[C@@H](NC=O)C(C)C)[C@H](C)O)C(=O)N[C@H](C(=O)N[C@H](CC(C)C)C(=O)N[C@@H](Cc1c[nH]c2ccccc12)C(=O)N[C@@H](C(=O)N[C@@H](Cc1c[nH]c2ccccc12)C(=O)N[C@H](CC(C)C)C(=O)N[C@@H](Cc1c[nH]c2ccccc12)C(=O)N[C@H](CC(C)C)C(=O)N[C@@H](Cc1c[nH]c2ccccc12)C(=O)NCCO)[C@H](C)O)C(C)C [compound 131] (For-VGA[dT]A[dL]V[dL]W[dT]W[dL]W[dL]W-NHCH2CH2OH),viability,[1],100%
same,H+/Na+ transport activity normalized against the value of 1 (1.00),[2],1.10
same,antibacterial activity,[3],-
CC(C)C[C@@H](NC(=O)[C@H](Cc1c[nH]c2ccccc12)NC(=O)[C@H](NC(=O)[C@@H](NC(=O)[C@H](NC(=O)[C@H](C)NC(=O)[C@H](NC(=O)[C@H](C)NC(=O)CNC(=O)[C@@H](NC=O)C(C)C)C(C)C)C(C)C)C(C)C)C(C)C)C(=O)N[C@@H](Cc1c[nH]c2ccccc12)C(=O)N[C@@H](C(=O)N[C@@H](Cc1c[nH]c2ccccc12)C(=O)N[C@@H](C(=O)N[C@@H](Cc1c[nH]c2ccccc12)C(=O)NCCO)C(C)C)C(C)C [compound 169] (For-VGA[dV]A[dV]V[dV]W[dL]W[dV]W[dV]W-NHCH2CH2OH),viability,[1],100%
same,H+/Na+ transport activity normalized against the value of 1 (1.00),[2],1.04
same,antibacterial activity,[3],++
CC(C)C[C@@H](NC(=O)[C@H](C)NC(=O)CNC(=O)[C@@H](NC=O)C(C)C)C(=O)N[C@@H](C)C(=O)N[C@H](CC(C)C)C(=O)N[C@H](C(=O)N[C@H](CC(C)C)C(=O)N[C@@H](Cc1c[nH]c2ccccc12)C(=O)N[C@@H](C(=O)N[C@@H](Cc1c[nH]c2ccccc12)C(=O)N[C@@H](C(=O)N[C@@H](Cc1c[nH]c2ccccc12)C(=O)N[C@H](CC(C)C)C(=O)N[C@@H](Cc1c[nH]c2ccccc12)C(=O)NCCO)C(C)C)[C@H](C)O)C(C)C [compound 196] (For-VGA[dL]A[dL]V[dL]W[dT]W[dV]W[dL]W-NHCH2CH2OH),viability,[1],100%
same,H+/Na+ transport activity normalized against the value of 1 (1.00),[2],1.06
same,antibacterial activity,[3],-
CC(C)C[C@@H](NC(=O)[C@H](C)NC(=O)CNC(=O)[C@@H](NC=O)C(C)C)C(=O)N[C@@H](C)C(=O)N[C@@H](C(=O)N[C@H](C(=O)N[C@@H](C(=O)N[C@@H](Cc1c[nH]c2ccccc12)C(=O)N[C@H](CC(C)C)C(=O)N[C@@H](Cc1c[nH]c2ccccc12)C(=O)N[C@H](CC(C)C)C(=O)N[C@@H](Cc1c[nH]c2ccccc12)C(=O)N[C@@H](C(=O)N[C@@H](Cc1c[nH]c2ccccc12)C(=O)NCCO)C(C)C)[C@H](C)O)C(C)C)C(C)C [compound 200] (For-VGA[dL]A[dV]V[dT]W[dL]W[dL]W[dV]W-NHCH2CH2OH),viability,[1],100%
same,H+/Na+ transport activity normalized against the value of 1 (1.00),[2],1.04
same,antibacterial activity,[3],+
CC(C)C[C@@H](NC(=O)[C@H](C)NC(=O)CNC(=O)[C@@H](NC=O)C(C)C)C(=O)N[C@@H](C)C(=O)N[C@@H](C(=O)N[C@H](C(=O)N[C@H](CC(C)C)C(=O)N[C@@H](Cc1c[nH]c2ccccc12)C(=O)N[C@@H](C(=O)N[C@@H](Cc1c[nH]c2ccccc12)C(=O)N[C@@H](C(=O)N[C@@H](Cc1c[nH]c2ccccc12)C(=O)N[C@H](CC(C)C)C(=O)N[C@@H](Cc1c[nH]c2ccccc12)C(=O)NCCO)[C@H](C)O)C(C)C)C(C)C)C(C)C [compound 201] (For-VGA[dL]A[dV]V[dL]W[dV]W[dT]W[dL]W-NHCH2CH2OH),viability,[1],100%
same,H+/Na+ transport activity normalized against the value of 1 (1.00),[2],1.06
same,antibacterial activity,[3],-
CC(C)C[C@@H](NC(=O)[C@H](C)NC(=O)CNC(=O)[C@@H](NC=O)C(C)C)C(=O)N[C@@H](C)C(=O)N[C@@H](C(=O)N[C@H](C(=O)N[C@@H](C(=O)N[C@@H](Cc1c[nH]c2ccccc12)C(=O)N[C@@H](C(=O)N[C@@H](Cc1c[nH]c2ccccc12)C(=O)N[C@@H](C(=O)N[C@@H](Cc1c[nH]c2ccccc12)C(=O)N[C@H](CC(C)C)C(=O)N[C@@H](Cc1c[nH]c2ccccc12)C(=O)NCCO)C(C)C)C(C)C)[C@H](C)O)C(C)C)C(C)C [compound 285] (For-VGA[dL]A[dV]V[dT]W[dV]W[dV]W[dL]W-NHCH2CH2OH),viability,[1],100%
same,H+/Na+ transport activity normalized against the value of 1 (1.00),[2],1.08
same,antibacterial activity,[3],-
CNC(=O)C[C@@H](NC(=O)[C@H](Cc1c[nH]c2ccccc12)NC(=O)[C@@H](CC(C)C)NC(=O)[C@H](Cc1c[nH]c2ccccc12)NC(=O)[C@@H](CC(C)C)NC(=O)[C@H](Cc1c[nH]c2ccccc12)NC(=O)[C@@H](CC(C)C)NC(=O)[C@@H](NC(=O)[C@@H](CC(C)C)NC(=O)[C@H](C)NC(=O)[C@@H](CC(C)C)NC(=O)[C@H](C)NC(=O)CNC(=O)[C@@H](NC=O)C(C)C)C(C)C)C(=O)N[C@@H](Cc1c[nH]c2ccccc12)C(=O)NCCO [compound 300] (For-VGA[dL]A[dL]V[dL]W[dL]W[dL]W[dD](NHMe)W-NHCH2CH2OH),viability,[1],100%
same,H+/Na+ transport activity normalized against the value of 1 (1.00),[2],1.00
same,antibacterial activity,[3],-
CNC(=O)C[C@@H](NC(=O)[C@H](C)NC(=O)[C@@H](CC(C)C)NC(=O)[C@H](C)NC(=O)CNC(=O)[C@@H](NC=O)C(C)C)C(=O)N[C@H](C(=O)N[C@@H](C(=O)N[C@@H](Cc1c[nH]c2ccccc12)C(=O)N[C@H](CC(C)C)C(=O)N[C@@H](Cc1c[nH]c2ccccc12)C(=O)N[C@H](CC(C)C)C(=O)N[C@@H](Cc1c[nH]c2ccccc12)C(=O)N[C@@H](C(=O)N[C@@H](Cc1c[nH]c2ccccc12)C(=O)NCCO)C(C)C)C(C)C)C(C)C [compound 346] (For-VGA[dL]A[dD](NHMe)V[dV]W[dL]W[dL]W[dV]W-NHCH2CH2OH),viability,[1],100%
same,H+/Na+ transport activity normalized against the value of 1 (1.00),[2],1.12
same,antibacterial activity,[3],-
CNC(=O)C[C@@H](NC(=O)[C@H](Cc1c[nH]c2ccccc12)NC(=O)[C@H](NC(=O)[C@H](Cc1c[nH]c2ccccc12)NC(=O)[C@H](NC(=O)[C@H](Cc1c[nH]c2ccccc12)NC(=O)[C@H](NC(=O)[C@@H](NC(=O)[C@H](NC(=O)[C@H](C)NC(=O)[C@@H](CC(C)C)NC(=O)[C@H](C)NC(=O)CNC(=O)[C@@H](NC=O)C(C)C)C(C)C)C(C)C)C(C)C)C(C)C)C(C)C)C(=O)N[C@@H](Cc1c[nH]c2ccccc12)C(=O)NCCO [compound 362] (For-VGA[dL]A[dV]V[dV]W[dV]W[dV]W[dD](NHMe)W-NHCH2CH2OH),viability,[1],100%
same,H+/Na+ transport activity normalized against the value of 1 (1.00),[2],1.05
same,antibacterial activity,[3],-
